21 compounds from patent publication US20230117470A1, “SUBSTITUTED PYRAZOLE COMPOUNDS AS TOLL RECEPTOR INHIBITORS” (BRISTOL-MYERS SQUIBB COMPANY, priority 2019, published 2023) can be followed below.

Bounds are passed on as bounds.

Format in all cases: cell-based
The target in one assay is T1, human TLR9 (Homo sapiens, UniProt Q9NR96).
T1 construct: host or cells: HEK-Blue cells
T1 sequence (Q9NR96 26-1032): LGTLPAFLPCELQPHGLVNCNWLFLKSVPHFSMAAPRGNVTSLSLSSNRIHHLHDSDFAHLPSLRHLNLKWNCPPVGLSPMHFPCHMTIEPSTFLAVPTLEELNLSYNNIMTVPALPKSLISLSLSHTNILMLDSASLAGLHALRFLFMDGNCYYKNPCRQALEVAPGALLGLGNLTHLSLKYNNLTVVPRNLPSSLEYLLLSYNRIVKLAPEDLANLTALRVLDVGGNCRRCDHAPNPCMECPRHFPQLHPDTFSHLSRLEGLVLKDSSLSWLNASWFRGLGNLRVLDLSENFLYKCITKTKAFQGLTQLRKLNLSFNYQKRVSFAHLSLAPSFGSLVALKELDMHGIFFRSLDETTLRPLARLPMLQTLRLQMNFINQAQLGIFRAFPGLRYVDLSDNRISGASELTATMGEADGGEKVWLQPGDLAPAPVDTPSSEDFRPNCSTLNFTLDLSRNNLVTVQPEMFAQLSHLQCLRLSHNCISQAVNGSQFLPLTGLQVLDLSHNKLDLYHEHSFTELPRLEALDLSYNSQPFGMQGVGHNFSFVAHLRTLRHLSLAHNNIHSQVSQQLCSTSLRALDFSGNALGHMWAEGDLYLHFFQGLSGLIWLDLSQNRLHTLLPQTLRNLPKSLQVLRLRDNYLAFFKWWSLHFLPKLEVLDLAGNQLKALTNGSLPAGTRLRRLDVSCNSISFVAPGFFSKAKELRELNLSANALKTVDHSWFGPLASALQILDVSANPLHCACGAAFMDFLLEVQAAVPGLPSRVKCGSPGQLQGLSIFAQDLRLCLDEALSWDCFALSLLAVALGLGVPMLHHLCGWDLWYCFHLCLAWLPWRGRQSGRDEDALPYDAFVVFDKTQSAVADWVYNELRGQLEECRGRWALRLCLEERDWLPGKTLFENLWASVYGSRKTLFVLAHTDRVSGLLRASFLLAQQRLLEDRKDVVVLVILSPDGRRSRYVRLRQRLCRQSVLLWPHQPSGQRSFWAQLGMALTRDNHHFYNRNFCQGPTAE
The experiment in a line: TLR9 inhibition reporter assay (HEK-Blue cells, SEAP reporter, ODN2006 stimulation). As to conditions: HEK-Blue cells overexpressing human TLR9, SEAP reporter, ODN2006 5 nM. The method in brief:
(§1)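 30 min RT cpd pre-incubation (0.05 nM–50 μM final dose response) → agonist: gardiquimod 7.5 μM / R848 15.9 μM / ODN2006 5 nM for TLR7/8/9 resp. → 22 h, 37° C → SEAP via detection medium. % inhibition vs agonist+DMSO and reference inhibitor controls.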
On the technique in general: Reporter assays use an easily measured gene product as a stand-in for the process of interest.

Another assay deals with T2, human TLR8 (Homo sapiens, UniProt Q9NR97).
T2 construct: host or cells: HEK-Blue cells
T2 sequence (Q9NR97 27-1041): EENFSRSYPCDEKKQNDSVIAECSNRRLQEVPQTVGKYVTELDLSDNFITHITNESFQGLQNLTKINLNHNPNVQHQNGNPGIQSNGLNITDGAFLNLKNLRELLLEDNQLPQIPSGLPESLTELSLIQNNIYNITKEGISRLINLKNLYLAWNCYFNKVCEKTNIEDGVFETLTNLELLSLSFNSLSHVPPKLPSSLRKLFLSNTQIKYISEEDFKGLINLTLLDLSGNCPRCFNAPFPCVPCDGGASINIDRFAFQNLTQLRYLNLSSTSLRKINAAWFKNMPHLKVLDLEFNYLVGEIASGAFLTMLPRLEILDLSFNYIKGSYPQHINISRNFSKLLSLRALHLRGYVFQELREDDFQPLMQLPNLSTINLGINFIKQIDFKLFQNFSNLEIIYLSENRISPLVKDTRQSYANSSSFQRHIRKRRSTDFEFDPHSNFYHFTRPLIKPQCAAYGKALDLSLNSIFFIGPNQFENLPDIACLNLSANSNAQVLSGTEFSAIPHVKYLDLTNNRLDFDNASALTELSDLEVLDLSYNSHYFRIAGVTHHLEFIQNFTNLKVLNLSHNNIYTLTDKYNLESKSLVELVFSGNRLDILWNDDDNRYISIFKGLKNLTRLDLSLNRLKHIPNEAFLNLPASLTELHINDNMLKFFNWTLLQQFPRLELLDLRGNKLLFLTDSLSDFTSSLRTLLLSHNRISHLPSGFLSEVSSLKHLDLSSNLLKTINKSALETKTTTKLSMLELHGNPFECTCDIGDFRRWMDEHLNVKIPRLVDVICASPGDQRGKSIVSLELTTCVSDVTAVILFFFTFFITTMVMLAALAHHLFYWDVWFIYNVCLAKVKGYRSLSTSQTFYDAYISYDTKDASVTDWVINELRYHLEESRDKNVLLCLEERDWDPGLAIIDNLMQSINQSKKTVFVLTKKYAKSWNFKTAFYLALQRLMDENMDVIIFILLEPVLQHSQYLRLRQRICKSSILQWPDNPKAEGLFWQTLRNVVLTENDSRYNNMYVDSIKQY
The experiment in a line: TLR8 inhibition reporter assay (HEK-Blue cells, SEAP reporter, R848 stimulation). As to conditions: HEK-Blue cells overexpressing human TLR8, SEAP reporter, R848 15.9 μM. The method in brief: as §1

For the next assay, the target named is T3, human TLR7 (Homo sapiens, UniProt Q9NYK1).
T3 construct: host or cells: HEK-Blue cells
T3 sequence (Q9NYK1 27-1049): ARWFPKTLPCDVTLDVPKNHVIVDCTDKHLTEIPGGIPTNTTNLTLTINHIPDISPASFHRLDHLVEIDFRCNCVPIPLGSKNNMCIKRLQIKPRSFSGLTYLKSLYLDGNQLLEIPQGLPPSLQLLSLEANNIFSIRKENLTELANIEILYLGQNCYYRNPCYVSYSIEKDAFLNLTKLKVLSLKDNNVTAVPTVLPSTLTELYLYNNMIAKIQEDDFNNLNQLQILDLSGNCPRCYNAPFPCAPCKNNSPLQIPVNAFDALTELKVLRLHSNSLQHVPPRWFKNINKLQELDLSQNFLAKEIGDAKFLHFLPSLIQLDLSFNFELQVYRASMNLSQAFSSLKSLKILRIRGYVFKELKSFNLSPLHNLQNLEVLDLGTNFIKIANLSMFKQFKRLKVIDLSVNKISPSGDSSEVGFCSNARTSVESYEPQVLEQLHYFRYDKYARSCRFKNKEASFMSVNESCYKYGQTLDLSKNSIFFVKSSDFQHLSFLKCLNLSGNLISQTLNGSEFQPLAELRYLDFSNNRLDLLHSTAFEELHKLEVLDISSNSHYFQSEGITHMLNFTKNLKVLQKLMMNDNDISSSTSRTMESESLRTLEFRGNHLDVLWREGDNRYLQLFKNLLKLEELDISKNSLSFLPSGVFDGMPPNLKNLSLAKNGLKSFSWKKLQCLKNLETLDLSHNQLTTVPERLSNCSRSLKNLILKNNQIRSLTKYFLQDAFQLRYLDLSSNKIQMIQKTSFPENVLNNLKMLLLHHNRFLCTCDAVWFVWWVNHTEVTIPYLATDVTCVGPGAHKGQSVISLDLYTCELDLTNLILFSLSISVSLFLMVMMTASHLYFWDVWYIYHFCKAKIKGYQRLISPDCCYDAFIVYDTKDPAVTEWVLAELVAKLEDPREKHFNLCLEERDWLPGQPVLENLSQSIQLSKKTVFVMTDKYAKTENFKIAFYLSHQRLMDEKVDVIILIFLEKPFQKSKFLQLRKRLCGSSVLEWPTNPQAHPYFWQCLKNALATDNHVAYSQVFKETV
The experiment in a line: TLR7 inhibition reporter assay (HEK-Blue cells, SEAP reporter, gardiquimod stimulation). As to conditions: HEK-Blue cells overexpressing human TLR7, SEAP reporter, gardiquimod 7.5 μM. The method in brief: as §1

Consider `COc1cc(-c2[nH]nc(-c3ccc(C4CN(CC(C)(C)O)C4)cc3)c2C(C)C)cn2ncnc12` [Example 337], for which the IC50 on human TLR9 turned out to be 42400 nM; at human TLR8, 7.61 nM; at human TLR7 it was 8.27 nM.

Take `COc1cc(-c2[nH]nc(-c3ccc(C4CN(CCS(C)(=O)=O)C4)cc3)c2C(C)C)cn2ncnc12` [Example 338]: the IC50 at human TLR9 was found to be 45600 nM; on human TLR8 it was 31.1 nM; against human TLR7 it was 10.1 nM.

For `COc1cc(-c2[nH]nc(-c3ccc(C4CCNCC4)cn3)c2C(C)C)cn2ncnc12` [Example 339, 6-(4-isopropyl-3-(5-(piperidin-4-yl)pyridin-2-yl)-1H-pyrazol-5-yl)-8-methoxy-[1,2,4]triazolo[1,5-a]pyridine], the IC50 turned out to be 36600 nM against human TLR9, 3.86 nM against human TLR8 and 19.9 nM on human TLR7.

With `Cc1cc(-c2[nH]nc(-c3ccc(C4CCNCC4)nc3)c2C(C)C)cn2ncnc12` [Example 340], the IC50 was found to be 5220 nM at human TLR9, 3.38 nM on human TLR8 and 4.64 nM at human TLR7.

As to `Cc1cc(-c2[nH]nc(-c3ncc(C4CCNCC4)cn3)c2C(C)C)cn2ncnc12` [Example 341], the IC50 was determined as 16500 nM at human TLR9, 9 nM on human TLR8 and 7.86 nM on human TLR7.

Take `Cc1cc(-c2[nH]nc(-c3ccc(C4CCNCC4)cn3)c2C(C)C)cn2ncnc12` [Example 342]: the IC50 on human TLR9 is > 50000 nM; at human TLR8 it was 12.6 nM; against human TLR7, 19.6 nM.

In the case of `Cc1cc(-c2[nH]nc(-c3cnc(C4CCNCC4)nc3)c2C(C)C)cn2ncnc12` [Example 343], the IC50 was > 50000 nM on human TLR9, 3.3 nM at human TLR8 and 24.1 nM at human TLR7.

On to `Cc1cc(-c2[nH]nc(-c3ccc(C4CCNCC4)nn3)c2C(C)C)cn2ncnc12` [Example 344], for which the IC50 against human TLR9 was > 50000 nM; on human TLR8, 12.7 nM; against human TLR7, 39 nM.

Consider `COc1cc(-c2[nH]nc(-c3cnc(C4CCNCC4)cn3)c2C(C)C)cn2ncnc12` [Example 345], for which the values for the IC50 at human TLR9, against human TLR8 and at human TLR7 were > 50000 nM, 3.12 nM and 23.4 nM, respectively.

`COc1c(C)c(-c2[nH]nc(-c3ccc(C4CCNCC4)cn3)c2C(C)C)cn2ncnc12` [Example 346]: the IC50 against human TLR9 stood at 19200 nM; against human TLR8, 7.94 nM; against human TLR7, 6.3 nM.

With `CCN1CCC(c2ccc(-c3n[nH]c(-c4cc(OC)c5ncnn5c4)c3C(C)C)nc2)CC1` [Example 347, 6-(3-(5-(1-ethylpiperidin-4-yl)pyridin-2-yl)-4-isopropyl-1H-pyrazol-5-yl)-8-methoxy-[1,2,4]triazolo[1,5-a]pyridine], the 50% inhibitory concentration (IC50) was > 50000 nM at human TLR9, 44.5 nM against human TLR8 and 22.9 nM at human TLR7.

Take `COc1cc(-c2[nH]nc(-c3ccc(C4CCN(C)CC4)cn3)c2C(C)C)cn2ncnc12` [Example 348]: the IC50 against human TLR9 is > 50000 nM; against human TLR8 it was 22.4 nM; at human TLR7, 19.1 nM.

Consider `CCCN1CCC(c2ccc(-c3n[nH]c(-c4cc(OC)c5ncnn5c4)c3C(C)C)nc2)CC1` [Example 349], for which the results for the IC50 on human TLR9, on human TLR8 and against human TLR7 were > 50000 nM, 1.85 nM and 91 nM, respectively.

Take `COc1cc(-c2[nH]nc(-c3ccc(C4CCN(C(C)C)CC4)cn3)c2C(C)C)cn2ncnc12` [Example 350]: the IC50 against human TLR9 came out at 21700 nM; against human TLR8 it was 0.12 nM; against human TLR7 it was 8.11 nM.

In the case of `Cc1cc(-c2[nH]nc(-c3ccc(C4CCN(C)CC4)nn3)c2C(C)C)cn2ncnc12` [Example 357], the values for the IC50 on human TLR9, at human TLR8 and on human TLR7 were 38100 nM, > 3130 nM and 1280 nM, respectively.

On to `Cc1cc(-c2[nH]nc(-c3ccc(C4CCN(C)CC4)nc3)c2C(C)C)cn2ncnc12` [Example 359], for which the IC50 on human TLR9 is > 50000 nM; on human TLR8 it was > 3130 nM; against human TLR7, 1120 nM.

Consider `CCN1CCC(c2ccc(-c3n[nH]c(-c4cc(C)c5ncnn5c4)c3C(C)C)cn2)CC1` [Example 360], for which the half-inhibitory concentration (IC50) against human TLR9 was > 50000 nM; against human TLR8, 1330 nM; against human TLR7 it was 1220 nM.

Consider `Cc1cc(-c2[nH]nc(-c3ccc(C4CCN(C(C)C)CC4)nc3)c2C(C)C)cn2ncnc12` [Example 361], for which the IC50 at human TLR9 was 45600 nM; at human TLR8 it was > 3130 nM; at human TLR7, 719 nM.

Regarding `Cc1cc(-c2[nH]nc(-c3ccc(C4CCN(C5COC5)CC4)nc3)c2C(C)C)cn2ncnc12` [Example 362], the IC50 on human TLR9 was 25100 nM; at human TLR8 it was > 3130 nM; on human TLR7, > 3130 nM.

Turning to `CCN1CCC(c2ccc(-c3n[nH]c(-c4cc(C)c5ncnn5c4)c3C(C)C)nc2)CC1` [Example 366], the IC50 on human TLR9 was 6260 nM; on human TLR8, > 3130 nM; against human TLR7 it was > 3130 nM.

For the compound `Cc1cc(-c2[nH]nc(-c3ncc(C4CCN(C)CC4)cn3)c2C(C)C)cn2ncnc12` [Example 368], the IC50 is 5460 nM against human TLR9, 28.1 nM against human TLR8 and 10.5 nM at human TLR7.

One may read the IC50 as the concentration at which inhibition is half-maximal. Read a low IC50 as inhibition by little substance.
